These results are taken from patent US8541588B2, “Sulfonamide derivatives” (Pfizer Limited, priority 2009, dated 2013).

This test deals with T1, Nav1.7 (or SCN9A) channel; HEK cells stably transfected with hSCN9A (Homo sapiens, UniProt Q15858).
T1 construct: expressed in transfected cells
Put plainly: Nav1.7 block, PatchXpress 7000 automated whole-cell voltage clamp, estimated IC50 (EIC50). It is filed as cell-based. To be noted: estimated IC50, hSCN9A HEK cells, PatchXpress platform.

T1 sequence (Q15858 whole entry): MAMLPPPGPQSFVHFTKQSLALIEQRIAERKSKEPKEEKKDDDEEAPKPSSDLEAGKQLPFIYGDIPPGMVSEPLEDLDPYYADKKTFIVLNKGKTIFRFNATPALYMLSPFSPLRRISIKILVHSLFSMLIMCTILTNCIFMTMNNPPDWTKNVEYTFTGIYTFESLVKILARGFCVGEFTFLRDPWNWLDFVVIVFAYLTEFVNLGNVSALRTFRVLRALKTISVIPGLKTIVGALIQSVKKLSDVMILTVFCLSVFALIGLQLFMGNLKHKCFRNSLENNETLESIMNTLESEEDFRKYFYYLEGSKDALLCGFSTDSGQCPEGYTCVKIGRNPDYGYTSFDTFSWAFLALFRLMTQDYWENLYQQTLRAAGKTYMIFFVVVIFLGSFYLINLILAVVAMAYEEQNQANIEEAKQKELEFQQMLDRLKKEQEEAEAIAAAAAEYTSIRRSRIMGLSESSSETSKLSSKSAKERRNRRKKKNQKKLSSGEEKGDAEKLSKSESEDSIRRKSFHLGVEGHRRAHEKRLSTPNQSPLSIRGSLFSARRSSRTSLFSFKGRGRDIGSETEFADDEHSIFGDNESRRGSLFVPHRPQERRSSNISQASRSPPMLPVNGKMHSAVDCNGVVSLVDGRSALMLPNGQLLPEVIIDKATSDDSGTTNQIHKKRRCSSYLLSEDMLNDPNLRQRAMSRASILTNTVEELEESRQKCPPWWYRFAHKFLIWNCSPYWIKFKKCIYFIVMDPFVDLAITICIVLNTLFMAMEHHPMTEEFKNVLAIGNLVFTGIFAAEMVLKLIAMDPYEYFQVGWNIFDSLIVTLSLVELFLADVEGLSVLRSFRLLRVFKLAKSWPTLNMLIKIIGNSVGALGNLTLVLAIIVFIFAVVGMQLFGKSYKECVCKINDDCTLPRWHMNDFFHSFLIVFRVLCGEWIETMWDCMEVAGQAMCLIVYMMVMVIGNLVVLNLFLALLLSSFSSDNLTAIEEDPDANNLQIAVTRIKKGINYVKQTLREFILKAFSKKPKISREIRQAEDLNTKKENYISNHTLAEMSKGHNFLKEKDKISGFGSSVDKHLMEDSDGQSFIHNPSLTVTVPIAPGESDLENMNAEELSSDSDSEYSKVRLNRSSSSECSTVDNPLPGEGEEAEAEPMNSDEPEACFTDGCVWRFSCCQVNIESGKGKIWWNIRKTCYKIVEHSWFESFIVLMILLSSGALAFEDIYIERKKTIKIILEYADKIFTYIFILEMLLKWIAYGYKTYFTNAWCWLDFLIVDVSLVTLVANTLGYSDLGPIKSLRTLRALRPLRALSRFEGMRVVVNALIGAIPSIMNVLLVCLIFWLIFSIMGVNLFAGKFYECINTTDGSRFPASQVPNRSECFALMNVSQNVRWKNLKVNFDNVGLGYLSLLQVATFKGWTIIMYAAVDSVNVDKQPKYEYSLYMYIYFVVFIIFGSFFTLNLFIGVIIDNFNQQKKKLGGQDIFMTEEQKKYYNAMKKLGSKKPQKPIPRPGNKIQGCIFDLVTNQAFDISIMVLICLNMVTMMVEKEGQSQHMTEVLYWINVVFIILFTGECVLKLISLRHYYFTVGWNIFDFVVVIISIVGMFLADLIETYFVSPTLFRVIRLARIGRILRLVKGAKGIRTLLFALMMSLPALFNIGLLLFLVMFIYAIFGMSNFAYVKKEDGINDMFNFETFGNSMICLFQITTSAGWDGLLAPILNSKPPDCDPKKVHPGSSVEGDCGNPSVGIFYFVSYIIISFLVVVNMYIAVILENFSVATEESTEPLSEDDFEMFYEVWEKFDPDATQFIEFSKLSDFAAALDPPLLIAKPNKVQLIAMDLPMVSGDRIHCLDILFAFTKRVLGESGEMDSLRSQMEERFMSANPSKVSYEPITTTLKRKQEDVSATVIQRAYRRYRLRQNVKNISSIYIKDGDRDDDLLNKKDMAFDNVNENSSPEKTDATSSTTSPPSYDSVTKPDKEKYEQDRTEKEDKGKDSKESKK

The IC50 is the midpoint of a concentration-inhibition curve. As for `N#Cc1cc(S(=O)(=O)Nc2ncns2)ccc1Oc1ccc(OC(F)(F)F)cc1-c1ccn[nH]1` [Example 793, 3-cyano-4-[2-(1H-pyrazol-5-yl)-4-(trifluoromethoxy)phenoxy]-N-1,2,4-thiadiazol-5-ylbenzenesulfonamide], for the setting “Examples 283-814”, the IC50 is 3.1 nM. Still for that read-out and setting: under `Nc1[nH]ncc1-c1cc(Cl)ccc1Oc1cc(F)c(S(=O)(=O)Nc2ncns2)cc1Cl` [Example 794, 4-[2-(5-amino-1H-pyrazol-4-yl)-4-chlorophenoxy]-5-chloro-2-fluoro-N-1,2,4-thiadiazol-5-ylbenzenesulfonamide] stands 4.8 nM; under `Cn1nccc1-c1cc(OC(F)(F)F)ccc1Oc1ccc(S(=O)(=O)Nc2ncns2)cc1C#N` [Example 795, 3-cyano-4-[2-(1-methyl-1H-pyrazol-5-yl)-4-(trifluoromethoxy)phenoxy]-N-1,2,4-thiadiazol-5-ylbenzenesulfonamide], 4.6 nM. Still for that read-out and setting: with `O=S(=O)(Nc1ncns1)c1cc(Cl)c(Oc2ccc(Cl)cc2C2CCNCC2)cc1F` [Example 796, 5-chloro-4-(4-chloro-2-piperidin-4-ylphenoxy)-2-fluoro-N-1,2,4-thiadiazol-5-ylbenzenesulfonamide] the figure was 2.1 nM; with `O=S(=O)(Nc1ccc(F)cn1)c1cc(Cl)c(Oc2ccc(C(F)(F)F)cc2C2CCNCC2)cc1F` [Example 800, 5-Chloro-2-fluoro-N-(5-fluoropyridin-2-yl)-4-[2-piperidin-4-yl-4-(trifluoromethyl)phenoxy]benzenesulfonamide], 52 nM. Still for that read-out and setting: under `Nc1n[nH]cc1-c1cc(Cl)ccc1Oc1cc(F)c(S(=O)(=O)Nc2nncs2)cc1Cl` [Example 803, 4-[2-(5-amino-1H-pyrazol-4-yl)-4-chlorophenoxy]-5-chloro-2-fluoro-N-1,3,4-thiadiazol-2-ylbenzenesulfonamide] stands 4.8 nM; under `N#Cc1cc(S(=O)(=O)Nc2ncns2)ccc1Oc1cc(F)c(Cl)cc1-c1cn[nH]c1` [Example 804, 4-[4-chloro-5-fluoro-2-(1H-pyrazol-4-yl)phenoxy]-3-cyano-N-1,2,4-thiadiazol-5-ylbenzenesulfonamide], 1.2 nM; under `O=S(=O)(Nc1ncns1)c1cc(F)c(Oc2ccc(C(F)(F)F)cc2-c2ccnnc2)cc1F` [Example 805, 2,5-difluoro-4-[2-pyridazin-4-yl-4-(trifluoromethyl)phenoxy]-N-1,2,4-thiadiazol-5-ylbenzenesulfonamide], 6.2 nM. In the case of `CN1CC(n2nccc2-c2cc(F)ccc2Oc2cc(F)c(S(=O)(=O)Nc3ncns3)cc2Cl)C1` [Example 806, 5-Chloro-2-fluoro-4-{4-fluoro-2-[1-(1-methylazetidin-3-yl)-1H-pyrazol-5-yl]phenoxy}-N-1,2,4-thiadiazol-5-ylbenzenesulfonamide], under “Examples 283-814”, the IC50 was 5.4 nM.

Take `CN1CC(n2nccc2-c2cc(F)ccc2Oc2cc(F)c(S(=O)(=O)Nc3cscn3)cc2Cl)C1` [Example 807, 5-Chloro-2-fluoro-4-{4-fluoro-2-[1-(1-methylazetidin-3-yl)-1H-pyrazol-5-yl]phenoxy}-N-1,3-thiazol-4-ylbenzenesulfonamide]: where the note is “Examples 283-814”, the IC50 is 15 nM. The same measure, in the same setting: under `O=S(=O)(Nc1cscn1)c1cc(Cl)c(Oc2ccc(F)cc2-c2ccnn2C2CNC2)cc1F` [Example 808, 4-[2-(1-Azetidin-3-yl-1H-pyrazol-5-yl)-4-fluorophenoxy]-5-chloro-2-fluoro-N-1,3-thiazol-4-ylbenzenesulfonamide] stands 7 nM; under `N#Cc1cc(S(=O)(=O)Nc2cscn2)ccc1Oc1ccc(Cl)cc1-c1ccnn1C1CNC1` [Example 809, 4-[2-(1-azetidin-3-yl-1H-pyrazol-5-yl)-4-chlorophenoxy]-3-cyano-N-1,3-thiazol-4-ylbenzenesulfonamide], 38 nM; under `O=S(=O)(Nc1ncns1)c1cc(Cl)c(Oc2ccc(F)cc2-c2ccnn2C2CNC2)cc1F` [Example 810, 4-[2-(1-azetidin-3-yl-1H-pyrazol-5-yl)-4-fluorophenoxy]-5-chloro-2-fluoro-N-1,2,4-thiadiazol-5-ylbenzenesulfonamide], 3.8 nM. Same read-out and setting: under `Nc1cc(-c2cc(Cl)ccc2Oc2cc(F)c(S(=O)(=O)Nc3ccncn3)cc2Cl)ccn1` [Example 812, 4-[2-(2-aminopyridin-4-yl)-4-chlorophenoxy]-5-chloro-2-fluoro-N-pyrimidin-4-ylbenzenesulfonamide] stands 5.1 nM; under `Nc1cc(-c2cc(Cl)ccc2Oc2cc(F)c(S(=O)(=O)Nc3nncs3)cc2Cl)ccn1` [Example 814, 4-[2-(2-aminopyridin-4-yl)-4-chlorophenoxy]-5-chloro-2-fluoro-N-1,3,4-thiadiazol-2-ylbenzenesulfonamide], 6.2 nM.

With `N#Cc1cc(S(=O)(=O)Nc2ncns2)ccc1Oc1ccc(I)cc1-c1cccc(CN2CCC2)c1` [Example 815, 4-{[3′-(azetidin-1-ylmethyl)-5-iodobiphenyl-2-yl]oxy}-3-cyano-N-1,2,4-thiadiazol-5-ylbenzenesulfonamide], the IC50 (Examples 815-1040) is 0.6 nM. For `Cc1[nH]ncc1-c1cc(Cl)ccc1Oc1cc(F)c(S(=O)(=O)Nc2nncs2)cc1Cl` [Example 816, 5-chloro-4-[4-chloro-2-(5-methyl-1H-pyrazol-4-yl)phenoxy]-2-fluoro-N-1,3,4-thiadiazol-2-ylbenzenesulfonamide], under “Examples 815-1040”, the IC50 is 11 nM. The same measure, in the same setting: under `Cc1nnc(NS(=O)(=O)c2cc(Cl)c(Oc3ccc(Cl)cc3-c3ccnn3C)cc2F)s1` [Example 817, 5-chloro-4-[4-chloro-2-(1-methyl-1H-pyrazol-5-yl)phenoxy]-2-fluoro-N-(5-methyl-1,3,4-thiadiazol-2-yl)benzenesulfonamide] stands 300 nM; under `N#Cc1cc(S(=O)(=O)Nc2nncs2)ccc1Oc1ccc(Cl)cc1-c1ccnc(N)c1` [Example 818, 4-[2-(2-aminopyridin-4-yl)-4-chlorophenoxy]-3-cyano-N-1,3,4-thiadiazol-2-ylbenzenesulfonamide], 320 nM; under `COCCn1ccc(-c2cc(Cl)ccc2Oc2cc(F)c(S(=O)(=O)Nc3nncs3)cc2Cl)n1` [Example 819, 5-chloro-4-{4-chloro-2-[1-(2-methoxyethyl)-1H-pyrazol-3-yl]phenoxy}-2-fluoro-N-1,3,4-thiadiazol-2-ylbenzenesulfonamide], 2400 nM. Regarding `Nc1cc(-c2cc(Cl)ccc2Oc2cc(F)c(S(=O)(=O)Nc3nncs3)cc2F)ccn1` [Example 820, 4-[2-(2-aminopyridin-4-yl)-4-chlorophenoxy]-2,5-difluoro-N-1,3,4-thiadiazol-2-ylbenzenesulfonamide], where the note is “Examples 815-1040”, the IC50 is 230 nM. On to `O=S(=O)(Nc1nncs1)c1cc(F)c(Oc2ccc(Cl)cc2-c2cn[nH]c2)cc1F` [Example 821, 4-[4-chloro-2-(1H-pyrazol-4-yl)phenoxy]-2,5-difluoro-N-1,3,4-thiadiazol-2-ylbenzenesulfonamide], for which the IC50 (Examples 815-1040) was 100 nM. The same measure, in the same setting: under `O=C(c1cccc(-c2cc(Cl)ccc2Oc2cc(F)c(S(=O)(=O)Nc3ncns3)cc2Cl)c1)N1CCC1` [Example 823, 4-{[3′-(azetidin-1-ylcarbonyl)-5-chlorobiphenyl-2-yl]oxy}-5-chloro-2-fluoro-N-1,2,4-thiadiazol-5-ylbenzenesulfonamide] stands 7.4 nM; under `O=C(c1cccc(-c2cc(Cl)ccc2Oc2cc(F)c(S(=O)(=O)Nc3ncns3)cc2Cl)c1)N1CC(O)C1` [Example 824, 5-chloro-4-({5-chloro-3′-[(3-hydroxyazetidin-1-yl)carbonyl]biphenyl-2-yl}oxy)-2-fluoro-N-1,2,4-thiadiazol-5-ylbenzenesulfonamide], 4.7 nM. Still for that read-out and setting: under `O=S(=O)(Nc1ncns1)c1ccc(Oc2ccc(Cl)cc2C2CCOCC2)c(F)c1` [Example 825, 4-[4-chloro-2-(tetrahydro-2H-pyran-4-yl)phenoxy]-3-fluoro-N-1,2,4-thiadiazol-5-ylbenzenesulfonamide] stands 190 nM; under `N#Cc1cc(S(=O)(=O)Nc2ncns2)ccc1Oc1ccc(F)cc1-c1cc(N)n[nH]1` [Example 826, 4-[2-(3-amino-1H-pyrazol-5-yl)-4-fluorophenoxy]-3-cyano-N-1,2,4-thiadiazol-5-ylbenzenesulfonamide], 300 nM. On the same count and under the same terms, under `O=S(=O)(Nc1ncns1)c1ccc(Oc2ccc(OC(F)(F)F)cc2-c2ccn[nH]2)c(F)c1` [Example 829, 3-fluoro-4-[2-(1H-pyrazol-5-yl)-4-(trifluoromethoxy)phenoxy]-N-1,2,4-thiadiazol-5-ylbenzenesulfonamide] stands 34 nM. `Nc1cccc(-c2cc(OC(F)(F)F)ccc2Oc2cc(F)c(S(=O)(=O)Nc3ncns3)cc2F)n1` [Example 830, 4-[2-(6-aminopyridin-2-yl)-4-(trifluoromethoxy)phenoxy]-2,5-difluoro-N-1,2,4-thiadiazol-5-ylbenzenesulfonamide]: the IC50 (Examples 815-1040) is 23 nM. Still for that read-out and setting: under `O=S(=O)(Nc1nncs1)c1cc(Cl)c(Oc2ccc(Cl)cc2-c2cccc(CN3CCC3)n2)cc1F` [Example 831, 4-{2-[6-(azetidin-1-ylmethyl)pyridin-2-yl]-4-chlorophenoxy}-5-chloro-2-fluoro-N-1,3,4-thiadiazol-2-ylbenzenesulfonamide] stands 63 nM; under `N#Cc1cc(S(=O)(=O)Nc2nncs2)ccc1Oc1ccc(Cl)cc1-c1ccnnc1` [Example 832, 4-(4-chloro-2-pyridazin-4-ylphenoxy)-3-cyano-N-1,3,4-thiadiazol-2-ylbenzenesulfonamide], 420 nM; under `O=S(=O)(Nc1nncs1)c1cc(F)c(Oc2ccc(Cl)cc2-c2ccnc(N3CCNCC3)c2)cc1F` [Example 833, 4-[4-chloro-2-(2-piperazin-1-ylpyridin-4-yl)phenoxy]-2,5-difluoro-N-1,3,4-thiadiazol-2-ylbenzenesulfonamide], 5.9 nM. Same read-out and setting: under `N#Cc1cc(S(=O)(=O)Nc2cscn2)ccc1Oc1ccc(Cl)cc1-c1ccnc(N2CCNCC2)c1` [Example 834, 4-[4-chloro-2-(2-piperazin-1-ylpyridin-4-yl)phenoxy]-3-cyano-N-1,3-thiazol-4-ylbenzenesulfonamide] stands 3.9 nM.
